# Data published in patent US20170023550A1, “ENGINEERED THREE-DIMENSIONAL BREAST TISSUE, ADIPOSE TISSUE, AND TUMOR DISEASE MODEL” (Organovo, Inc., priority 2014, published 2017).
# Experiments:
# Format in all cases: cell-based, human
# [1] = tested on: bioprinted breast cancer constructs (MCF7/HUVEC cancer node surrounded by NHMF, HUVEC, SPA stroma); assay: Construct viability after drug treatment by alamarBlue assay; conditions: 10 μM compound for 3 days, followed by 100 μM compound for 24 hours; FIG. 14
# Text: The stromal compartment of the constructs was comprised of 65% NHMF, 25% HUVEC, and 10% SPA (partially pre-differentiated). The cancer compartment of the constructs was comprised of 75% MCF7, 25% HUVEC. For each compartment, cells were mixed together at the indicated ratio and resuspended in Novogel® 3.0 at a concentration of 150 million cells/ml. Constructs were printed as 3 layered structures with a dimension of 3 mm×3 mm×0.75 mm. Immediately following bioprinting, constructs were stabilized via crosslinking After 2 minutes, the calcium crosslinking solution was aspirated and replaced with culture media. After 2 days in culture, constructs were treated overnight with enzyme dissolved in culture media to remove the Novogel® 3.0. Constructs were then incubated for up to 9 additional days. All compounds were acquired from Sigma-Aldrich and were dissolved in DMSO. Compounds were diluted to a final concentration of 10 μM or 100 μM in media. The final DMSO concentration was 0.1%, which was used for vehicle treatment. Constructs were assessed for metabolic activity by alamarBlue assay (Life Technologies, Carlsbad, Calif.) or CellTiter Glo assay (Promega, Madison, Wis.). Constructs were treated for 24 hours for labeled compound uptake studies, or for 4 days for assessment of metabolic activity.
# [2] = tested on: bioprinted breast cancer tumor models (cancer and stromal compartments); assay: Apoptosis by TUNEL staining with CK8 and TE7 markers in bioprinted breast cancer tumor model; conditions: 100 μM cisplatin for 4 days; FIG. 22
# Text: (§1) The breast cancer tumor models included a nodule of human breast cancer cells surrounded by a physiologically-relevant stromal layer, which included human adipocytes differentiated from human mesenchymal stem cells, human mammary fibroblasts, and human endothelial cells. The adipocytes were derived from mesenchymal stem cells which were isolated an exposed to an adipocyte differentiation signal prior to preparation of the bio-ink and bioprinting.
# Referring to FIG. 22, bioprinted tissues were treated with vehicle (A-C) or 100 μM cisplatin (D-F) for 4 days. The first (A and D) and second (B and E) columns depict tissues assessed for apoptosis by TUNEL staining (green) and markers for cancer cells (CK8, red). The last ([…]) column depicts tissues assessed for apoptosis by TUNEL staining (green) and markers for fibroblasts (TE7, red).
# [3] = tested on: breast cancer cells in two-dimensional cell culture and bioprinted breast cancer tumor models; assay: Tamoxifen drug response by ATP luciferase assay, two-dimensional breast cancer cell culture compared to bioprinted breast cancer tumor models; conditions: 10 μM tamoxifen for 48 hours; FIG. 20
# Text: as §1
# The breast cancer tumor models were exposed to chemotherapy compounds in order to access drug response. Referring to FIG. 20, breast cancer cells grown in two-dimensional cell culture (A) and the bioprinted breast cancer tumor models (B) were treated with media alone, DMSO, or 10 μM tamoxifen for 48 hours and assessed for viability by ATP luciferase assay. For each graph, * indicates p<0.05 for treatment compared to control.
Compound,construct viability relative to media or vehicle controls (alamarBlue) [1],"apoptosis by TUNEL staining, stromal compartment vs cancer compartment [2]","susceptibility to tamoxifen-induced toxicity, two-dimensional cancer cells vs three-dimensional bioprinted constructs (viability by ATP luciferase assay) [3]"
"N.N.[Cl][Pt][Cl] [Cisplatin, cisplatin]",decreased construct viability,induces greater apoptosis in the stromal compartment of bioprinted tissues than in the cancer compartment,–
CC(=O)O[C@H]1C(=O)[C@@]2(C)[C@H]([C@H](OC(=O)c3ccccc3)[C@]3(O)C[C@H](OC(=O)[C@H](O)[C@@H](NC(=O)c4ccccc4)c4ccccc4)C(C)=C1C3(C)C)[C@]1(OC(C)=O)CO[C@@H]1C[C@@H]2O [paclitaxel],decreased construct viability,–,–
CC/C(=C(\c1ccccc1)c1ccc(OCCN(C)C)cc1)c1ccccc1 [tamoxifen],–,–,more susceptible to tamoxifen-induced toxicity than cells incorporated into three-dimensional bioprinted constructs
